In ChEMBL document CHEMBL4715859, “Small Molecules Selectively Targeting Sigma-1 Receptor for the Treatment of Neurological Diseases” (J Med Chem, 2020):

Key:
[1] = biological target: T1, Sigma non-opioid intracellular receptor 1 (Cavia porcellus, UniProt Q60492); experiment: Displacement of [3H]-(+)-pentazocine from sigma 1 receptor in Dunkin guinea pig brain membranes incubated for 120 mins by scintillation counting method; assay type: cell membranes, Membrane
[2] = biological target: T2, Sigma intracellular receptor 2 (Rattus norvegicus, UniProt Q5U3Y7); experiment: Displacement of [3H]DTG from sigma2 receptor in Wistar Hannover rat liver membranes incubated for 120 mins by solid scintillation counting method; assay type: cell membranes, Membrane
T2 sequence (Q5U3Y7 whole entry): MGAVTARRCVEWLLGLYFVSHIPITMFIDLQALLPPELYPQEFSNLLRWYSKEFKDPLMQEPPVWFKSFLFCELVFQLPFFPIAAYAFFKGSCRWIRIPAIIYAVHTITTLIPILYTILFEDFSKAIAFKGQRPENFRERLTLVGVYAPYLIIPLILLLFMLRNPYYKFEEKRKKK

[3] = Selectivity ratio of Ki for sigma2 receptor in Wistar Hannover rat liver membranes to Ki for sigma 1 receptor in Dunkin guinea pig brain membranes; assay type: cell membranes
[4] = biological target: T2, Sigma intracellular receptor 2; experiment: Displacement of [3H]DTG from sigma2 receptor in rat liver membranes incubated for 120 mins by solid scintillation counting method; assay type: cell membranes, Membrane
[5] = biological target: T1, Sigma non-opioid intracellular receptor 1; experiment: Displacement of [3H]-(+)-pentazocine from sigma1 receptor in guinea pig brain cortex membranes incubated for 120 mins by solid scintillation counting method; assay type: cell membranes, Membrane
[6] = Selectivity ratio of Ki for displacement of [3H]DTG from sigma2 receptor in rat liver membranes to Ki for displacement of [3H]-(+)-pentazocine from sigma1 receptor in guinea pig brain cortex membranes; assay type: cell membranes
[7] = biological target: T1, Sigma non-opioid intracellular receptor 1; experiment: Displacement of [3H]-(+)-pentazocine from sigma 1 receptor in guinea pig brain cortex membranes incubated for 120 mins by solid scintillation counting method; assay type: cell membranes, Membrane
[8] = biological target: Sigma non-opioid intracellular receptor 1 (Mus musculus, UniProt O55242); experiment: Inhibition of radioligand binding to sigma1 receptor in C57BL/6 mouse brain membranes; assay type: cell membranes, Membrane
Sequence of Sigma non-opioid intracellular receptor 1 (Mus musculus, UniProt O55242) (O55242 whole entry): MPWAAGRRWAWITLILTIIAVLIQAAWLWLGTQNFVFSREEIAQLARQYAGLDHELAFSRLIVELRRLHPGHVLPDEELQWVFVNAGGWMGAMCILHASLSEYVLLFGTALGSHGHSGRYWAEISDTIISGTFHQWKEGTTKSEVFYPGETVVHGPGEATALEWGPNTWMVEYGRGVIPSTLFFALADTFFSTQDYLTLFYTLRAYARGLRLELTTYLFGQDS

[9] = biological target: Sigma intracellular receptor 2 (Mus musculus, UniProt Q8VD00); experiment: Inhibition of radioligand binding to sigma2 receptor in C57BL/6 mouse brain membranes; assay type: cell membranes, Membrane
Sequence of Sigma intracellular receptor 2 (Mus musculus, UniProt Q8VD00) (Q8VD00 whole entry): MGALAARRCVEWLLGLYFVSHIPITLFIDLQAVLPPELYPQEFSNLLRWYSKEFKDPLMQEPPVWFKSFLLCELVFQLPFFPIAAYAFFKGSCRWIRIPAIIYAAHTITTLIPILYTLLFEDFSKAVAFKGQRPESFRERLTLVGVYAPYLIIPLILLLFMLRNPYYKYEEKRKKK

[10] = biological target: T3, Sigma non-opioid intracellular receptor 1 (Homo sapiens, UniProt Q99720); experiment: Binding affinity to sigma-1 receptor (unknown origin)
T3 sequence (Q99720 whole entry): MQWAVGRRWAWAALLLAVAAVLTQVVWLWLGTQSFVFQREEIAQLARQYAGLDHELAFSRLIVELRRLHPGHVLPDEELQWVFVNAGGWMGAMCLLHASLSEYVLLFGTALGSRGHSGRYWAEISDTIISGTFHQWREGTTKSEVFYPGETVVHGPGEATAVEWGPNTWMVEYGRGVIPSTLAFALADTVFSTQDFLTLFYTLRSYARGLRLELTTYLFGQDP

[11] = biological target: Sigma intracellular receptor 2 (Homo sapiens, UniProt Q5BJF2); experiment: Binding affinity to sigma-2 receptor (unknown origin)
Sequence of Sigma intracellular receptor 2 (Homo sapiens, UniProt Q5BJF2) (Q5BJF2 whole entry): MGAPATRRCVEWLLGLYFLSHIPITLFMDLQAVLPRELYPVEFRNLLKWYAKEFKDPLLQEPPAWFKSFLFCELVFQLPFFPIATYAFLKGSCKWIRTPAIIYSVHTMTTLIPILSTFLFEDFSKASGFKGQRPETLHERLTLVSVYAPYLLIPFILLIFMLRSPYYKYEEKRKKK

[12] = biological target: Kappa-type opioid receptor (Homo sapiens, UniProt P41145); experiment: Binding affinity to kappa opioid receptor (unknown origin)
Sequence of Kappa-type opioid receptor (P41145 whole entry): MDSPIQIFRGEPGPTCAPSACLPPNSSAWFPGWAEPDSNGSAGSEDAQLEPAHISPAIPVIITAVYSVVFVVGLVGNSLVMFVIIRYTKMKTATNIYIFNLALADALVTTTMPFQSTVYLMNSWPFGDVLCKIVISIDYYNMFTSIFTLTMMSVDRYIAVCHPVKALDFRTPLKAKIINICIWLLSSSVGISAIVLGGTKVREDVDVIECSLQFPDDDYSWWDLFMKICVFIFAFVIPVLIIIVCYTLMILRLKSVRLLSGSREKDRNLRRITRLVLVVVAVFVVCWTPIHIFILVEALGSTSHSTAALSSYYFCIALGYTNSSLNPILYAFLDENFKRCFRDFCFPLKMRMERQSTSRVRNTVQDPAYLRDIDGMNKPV

[13] = biological target: T2, Sigma intracellular receptor 2; assay type: cell membranes, Sprague-Dawley, Brain, Membrane
[14] = biological target: T4, Sigma non-opioid intracellular receptor 1 (Rattus norvegicus, UniProt Q9R0C9); assay type: cell membranes, Sprague-Dawley, Brain, Membrane
T4 sequence (Q9R0C9 whole entry): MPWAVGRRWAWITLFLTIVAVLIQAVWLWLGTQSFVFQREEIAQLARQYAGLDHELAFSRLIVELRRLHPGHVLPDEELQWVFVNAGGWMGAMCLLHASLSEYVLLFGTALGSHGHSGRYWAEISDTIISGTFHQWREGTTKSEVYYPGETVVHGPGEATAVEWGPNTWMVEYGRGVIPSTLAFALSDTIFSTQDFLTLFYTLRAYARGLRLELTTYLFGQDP

[15] = biological target: T3, Sigma non-opioid intracellular receptor 1
[16] = organism: Cavia porcellus; experiment: Selectivity ratio of Ki for sigma 2 receptor in Dunkin-Hartley guinea pig brain membranes to Ki for sigma 1 receptor in Dunkin-Hartley guinea pig brain membrane
[17] = biological target: Histamine H3 receptor (Rattus norvegicus, UniProt Q9QYN8); experiment: Displacement of [3H]-methylhistamine from Histamine H3 receptor in rat cerebral cortex incubated for 30 min by liquid scintillation counting method; assay type: tissue-based
[18] = biological target: T1, Sigma non-opioid intracellular receptor 1; experiment: Displacement of [3H]-(+)-pentazocine from sigma 1 receptor in Dunkin-Hartley guinea pig brain membranes incubated for 180 mins by liquid scintillation counting method; assay type: cell membranes, Membrane
[19] = Displacement of [3H]-dio-tolylguanidine from Sigma 2 receptor in Dunkin-Hartley guinea pig brain membrane incubated for 120 mins in presence of sigma1 blocker (+)-SKF-10047 by liquid scintillation counting method; assay type: cell membranes, Cavia porcellus
[20] = biological target: T4, Sigma non-opioid intracellular receptor 1; experiment: Displacement of [3H]-(+)-pentazocine from sigma 1 receptor in rat liver membranes incubated for 60 mins […] by radioactivity method; assay type: cell membranes, Membrane
[21] = biological target: T2, Sigma intracellular receptor 2; experiment: Displacement of [3H]DTG from sigma 2 receptor in rat liver membranes incubated for 60 mins in presence of [3H]-(+)-pentazocine by radioactivity method; assay type: cell membranes, Membrane
[22] = biological target: D(4) dopamine receptor (Homo sapiens) (UniProt P21917); experiment: Inhibition of radioligand binding to dopamine D4 receptor (unknown origin) at 1 uM relative to control
Sequence of D(4) dopamine receptor (Homo sapiens) (P21917 whole entry): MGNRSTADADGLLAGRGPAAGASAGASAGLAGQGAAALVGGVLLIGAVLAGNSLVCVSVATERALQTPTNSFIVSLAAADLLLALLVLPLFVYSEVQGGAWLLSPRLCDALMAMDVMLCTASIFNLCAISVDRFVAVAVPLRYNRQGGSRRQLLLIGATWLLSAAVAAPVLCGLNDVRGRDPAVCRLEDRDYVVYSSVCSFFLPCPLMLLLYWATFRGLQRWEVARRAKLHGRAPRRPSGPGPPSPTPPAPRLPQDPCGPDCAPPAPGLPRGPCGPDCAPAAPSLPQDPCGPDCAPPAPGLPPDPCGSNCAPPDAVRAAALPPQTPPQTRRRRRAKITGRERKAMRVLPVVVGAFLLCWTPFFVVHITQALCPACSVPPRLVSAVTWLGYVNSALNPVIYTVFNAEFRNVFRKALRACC

[23] = biological target: T5, Sodium-dependent noradrenaline transporter (Homo sapiens, UniProt P23975); experiment: Inhibition of radioligand binding to noradrenaline transporter (unknown origin) at 1 uM relative to control
T5 sequence (P23975 whole entry): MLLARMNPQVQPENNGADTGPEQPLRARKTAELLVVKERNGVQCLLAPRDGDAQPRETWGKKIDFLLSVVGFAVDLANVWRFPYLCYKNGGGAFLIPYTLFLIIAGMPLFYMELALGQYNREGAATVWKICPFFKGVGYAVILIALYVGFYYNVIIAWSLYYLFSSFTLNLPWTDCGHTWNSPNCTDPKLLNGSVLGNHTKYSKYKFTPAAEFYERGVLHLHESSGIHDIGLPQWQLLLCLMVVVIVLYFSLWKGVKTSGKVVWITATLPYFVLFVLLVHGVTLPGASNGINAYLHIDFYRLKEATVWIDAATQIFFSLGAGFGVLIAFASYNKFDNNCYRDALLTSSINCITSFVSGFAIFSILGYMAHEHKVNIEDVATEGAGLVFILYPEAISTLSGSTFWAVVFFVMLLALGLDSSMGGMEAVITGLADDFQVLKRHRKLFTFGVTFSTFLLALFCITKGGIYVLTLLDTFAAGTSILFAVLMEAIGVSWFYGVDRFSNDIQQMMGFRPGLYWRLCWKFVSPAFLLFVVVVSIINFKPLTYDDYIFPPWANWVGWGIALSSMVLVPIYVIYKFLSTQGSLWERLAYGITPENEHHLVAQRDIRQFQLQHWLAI

[24] = biological target: Histamine H2 receptor (Homo sapiens) (UniProt P25021); experiment: Inhibition of radioligand binding to histamine H2 receptor (unknown origin) at 1 uM relative to control
Sequence of Histamine H2 receptor (Homo sapiens) (P25021 whole entry): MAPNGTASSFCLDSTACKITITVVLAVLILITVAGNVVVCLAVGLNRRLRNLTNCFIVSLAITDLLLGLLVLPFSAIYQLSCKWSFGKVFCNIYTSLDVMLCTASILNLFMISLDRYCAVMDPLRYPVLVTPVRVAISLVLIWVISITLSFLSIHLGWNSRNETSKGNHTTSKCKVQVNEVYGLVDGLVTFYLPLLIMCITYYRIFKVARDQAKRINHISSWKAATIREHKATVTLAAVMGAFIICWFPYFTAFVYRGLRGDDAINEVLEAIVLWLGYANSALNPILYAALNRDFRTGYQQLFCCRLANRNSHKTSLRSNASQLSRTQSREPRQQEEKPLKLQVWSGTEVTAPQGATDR

[25] = biological target: T6, Sodium-dependent dopamine transporter (Homo sapiens, UniProt Q01959); experiment: Inhibition of radioligand binding to dopamine transporter (unknown origin) at 1 uM relative to control
T6 sequence (Q01959 whole entry): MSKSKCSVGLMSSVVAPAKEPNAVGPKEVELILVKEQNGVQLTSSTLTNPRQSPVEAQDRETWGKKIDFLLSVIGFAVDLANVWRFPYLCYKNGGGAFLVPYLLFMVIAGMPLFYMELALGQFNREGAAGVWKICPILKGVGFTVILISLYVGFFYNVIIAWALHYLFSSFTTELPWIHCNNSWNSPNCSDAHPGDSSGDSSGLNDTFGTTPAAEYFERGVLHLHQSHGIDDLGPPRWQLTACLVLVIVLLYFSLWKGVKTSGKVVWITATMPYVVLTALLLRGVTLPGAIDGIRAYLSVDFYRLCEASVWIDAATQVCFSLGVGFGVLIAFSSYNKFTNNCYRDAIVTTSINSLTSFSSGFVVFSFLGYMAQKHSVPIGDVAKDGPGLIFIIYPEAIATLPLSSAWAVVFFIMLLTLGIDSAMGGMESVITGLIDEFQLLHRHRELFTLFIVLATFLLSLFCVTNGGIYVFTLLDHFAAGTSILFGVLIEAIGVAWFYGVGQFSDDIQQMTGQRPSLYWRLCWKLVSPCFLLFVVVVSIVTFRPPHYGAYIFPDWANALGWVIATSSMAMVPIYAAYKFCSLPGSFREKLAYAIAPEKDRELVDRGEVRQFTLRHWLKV

[26] = Displacement of [3H]DTG from sigma2 receptor in guinea pig brain membranes by scintillation counting method; assay type: cell membranes, Cavia porcellus, Membrane
[27] = biological target: T6, Sodium-dependent dopamine transporter; experiment: Displacement of [3H]WIN35428 from dopamine transporter (unknown origin) by liquid scintillation counting method
[28] = biological target: Sodium-dependent serotonin transporter (Homo sapiens, UniProt P31645); experiment: Displacement of [3H]citalopram from serotonin transporter (unknown origin) by liquid scintillation counting method
Sequence of Sodium-dependent serotonin transporter (P31645 whole entry): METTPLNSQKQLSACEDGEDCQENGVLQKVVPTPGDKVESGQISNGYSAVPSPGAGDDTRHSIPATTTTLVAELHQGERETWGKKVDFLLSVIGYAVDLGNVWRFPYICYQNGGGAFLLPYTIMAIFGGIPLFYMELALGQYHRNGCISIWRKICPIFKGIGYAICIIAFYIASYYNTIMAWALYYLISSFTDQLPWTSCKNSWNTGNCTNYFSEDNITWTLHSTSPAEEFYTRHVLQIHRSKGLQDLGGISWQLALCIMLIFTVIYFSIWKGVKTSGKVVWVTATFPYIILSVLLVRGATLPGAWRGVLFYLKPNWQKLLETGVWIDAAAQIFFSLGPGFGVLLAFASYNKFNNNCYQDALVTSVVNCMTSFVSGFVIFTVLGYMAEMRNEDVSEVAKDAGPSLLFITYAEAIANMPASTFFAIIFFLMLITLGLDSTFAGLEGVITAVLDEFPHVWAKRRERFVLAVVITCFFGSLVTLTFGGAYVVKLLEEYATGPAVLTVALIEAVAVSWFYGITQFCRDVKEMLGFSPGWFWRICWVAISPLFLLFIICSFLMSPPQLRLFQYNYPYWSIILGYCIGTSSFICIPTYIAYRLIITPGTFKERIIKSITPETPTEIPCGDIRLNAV

[29] = biological target: T5, Sodium-dependent noradrenaline transporter; experiment: Displacement of [3H]nisoxetine from norepinephrine transporter (unknown origin) by liquid scintillation counting method
[30] = Selectivity ratio of Ki for displacement of [3H]DTG from sigma2 receptor in rat PC12 cells to Ki for displacement of [3H]-(+)-pentazocine from sigma1 receptor in guinea pig brain homogenate; assay type: cell-based
[31] = biological target: Muscarinic acetylcholine receptor M3 (Homo sapiens, UniProt P20309); experiment: Binding affinity to muscarinic acetylcholine receptor M3 (unknown origin)
[32] = biological target: Muscarinic acetylcholine receptor M4 (Homo sapiens, UniProt P08173); experiment: Binding affinity to muscarinic acetylcholine receptor M4 (unknown origin)
[33] = biological target: Muscarinic acetylcholine receptor M2 (Homo sapiens, UniProt P08172); experiment: Binding affinity to muscarinic acetylcholine receptor M2 (unknown origin)
[34] = biological target: Muscarinic acetylcholine receptor M1 (Homo sapiens, UniProt P11229); experiment: Binding affinity to muscarinic acetylcholine receptor M1 (unknown origin)
[35] = biological target: Alpha-2A adrenergic receptor (Homo sapiens, UniProt P08913); experiment: Binding affinity to alpha 2A adrenoceptor (unknown origin)
Sequence of Alpha-2A adrenergic receptor (P08913 whole entry): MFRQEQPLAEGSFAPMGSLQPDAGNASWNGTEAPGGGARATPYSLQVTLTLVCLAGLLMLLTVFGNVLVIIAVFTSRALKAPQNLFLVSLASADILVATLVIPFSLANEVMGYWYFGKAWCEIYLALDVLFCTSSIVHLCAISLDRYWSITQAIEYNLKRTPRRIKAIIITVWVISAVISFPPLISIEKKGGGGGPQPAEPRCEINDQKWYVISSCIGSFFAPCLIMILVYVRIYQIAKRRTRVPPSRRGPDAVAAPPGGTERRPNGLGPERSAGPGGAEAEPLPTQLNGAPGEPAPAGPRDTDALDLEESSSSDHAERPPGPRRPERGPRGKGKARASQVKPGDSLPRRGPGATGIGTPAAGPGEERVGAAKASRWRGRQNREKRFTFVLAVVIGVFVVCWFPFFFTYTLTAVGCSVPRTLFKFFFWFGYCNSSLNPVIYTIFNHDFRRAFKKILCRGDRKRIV

T1 sequence (Q60492 whole entry): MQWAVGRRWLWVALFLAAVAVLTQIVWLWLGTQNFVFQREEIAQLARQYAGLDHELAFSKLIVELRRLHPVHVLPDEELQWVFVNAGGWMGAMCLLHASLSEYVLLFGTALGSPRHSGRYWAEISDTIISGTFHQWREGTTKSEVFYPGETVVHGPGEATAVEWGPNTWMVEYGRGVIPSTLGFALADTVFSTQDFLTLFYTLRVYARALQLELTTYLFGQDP

## COc1ccc2c(CCCCN3C4CCCC3CCC4)cccc2c1
[1]
  Ki: 1.03 nM
[2]
  Ki: 226 nM
[3]
  Ratio Ki: 317

## c1ccc(CO[C@H](c2ccccc2)[C@H]2CCN(Cc3ccccc3)Cc3ccccc32)cc1
[4]
  Ki: 668 nM
[5]
  Ki: 9 nM
[6]
  Ratio Ki: > 52

## O=C(COc1ccc(Cl)c(Cl)c1)NCCN1CCOCC1
[4]
  Ki: 1500 nM
[7]
  Ki: 42 nM

## C#CCN(C)CCCOc1ccc(Cl)cc1Cl [CLORGILINE]
[8]
  Ki: 2.9 nM
[9]
  Ki: 505 nM

## c1ccc(CC2CCN(CC3CCCCC3)Cc3ccccc32)cc1 (configuration not stated)
[4]
  Ki: 125 nM
[5]
  Ki: 2.4 nM
[6]
  Ratio Ki: > 52

## CCN(CC)CCOCCOC(=O)C1(c2ccccc2)CCCC1 [CARBETAPENTANE]
[10]
  Ki: 129 nM
[11]
  Ki: 1950 nM

## CCOC1(c2ncc(-c3ccncc3)s2)CCN(Cc2ccccc2)CC1
[4]
  Ki: 3600 nM
[5]
  Ki: 1.9 nM
[6]
  Ratio Ki: > 1500

## CC(C)=CCN1CCC2(C)c3cc(O)ccc3CC1C2C (configuration not stated) [PENTAZOCINE]
[12]
  Ki: 2.2 nM

## CN(C)CCCN1c2ccccc2CCc2ccccc21 [IMIPRAMINE]
[13]
  Ki: 2110 nM
[14]
  Ki: 343 nM

## CCOC1(c2ncc(-c3cccnc3)s2)CCN(Cc2ccccc2)CC1
[4]
  Ki: 2130 nM
[5]
  Ki: 1.3 nM
[6]
  Ratio Ki: > 1500

## CCCN1CCC(c2cccc(S(C)(=O)=O)c2)CC1 [PRIDOPIDINE]
[15]
  Ki: 81.7 nM

## Clc1ccc(-c2noc(CCCCN3CCOCC3)n2)c(Cl)c1
[16]
  Ratio Ki: 587
[17]
  Ki: 23.2 nM
[18]
  Ki: 0.28 nM
[19]
  Ki: 164 nM

## c1ccc(CN2CCC3(CCc4ccccc4S3)CC2)cc1
[20]
  Ki: 0.5 nM
[21]
  Ki: 416 nM

## Fc1ccc(CN2CCC(Cc3ccccc3)c3ccccc3C2)cc1 (configuration not stated)
[22]
  inhibition: 91%
[4]
  Ki: 889 nM
[5]
  Ki: 7.1 nM
[6]
  Ratio Ki: > 52
[23]
  inhibition: 71%
[24]
  inhibition: 59%
[25]
  inhibition: 85%

## CNCCC(Oc1ccc(C(F)(F)F)cc1)c1ccccc1 (configuration not stated) [FLUOXETINE]
[13]
  Ki: 16100 nM

## COc1ccc(CCN2CCN(CCCc3ccccc3)CC2)cc1OC [[11C]SA4503]
[26]
  IC50: 1800 nM

## c1ccc(OCc2cc(OCCNC3CCC3)no2)cc1
[27]
  Ki: > 7000 nM
[28]
  Ki: > 7000 nM
[29]
  Ki: > 7000 nM
[30]
  Ratio Ki: 990

## CN(C)CC1CCOC1(c1ccccc1)c1ccccc1 (configuration not stated) [BLARCAMESINE]
[31]
  IC50: 3300 nM
[32]
  IC50: 3300 nM
[10]
  IC50: 860 nM
[33]
  IC50: 3300 nM
[34]
  IC50: 3300 nM

## C=C1CCN2Cc3ccc(OC)cc3[C@H]3CCCC[C@]32C1
[10]
  Ki: 8 nM
[11]
  Ki: 152 nM
[35]
  Ki: 531 nM
